Reference: ChEMBL document CHEMBL1125667, “Receptor-based design of novel dihydrofolate reductase inhibitors: benzimidazole and indole derivatives” (J Med Chem, 1991)
pIC50: −log10 of the molar value. Blank lines part the entries; values can stand above or below the compound they belong to.

Key:
[1] = target: T1, Dihydrofolate reductase (Rattus norvegicus) (UniProt Q920D2); experiment: Inhibitory activity against Dihydrofolate reductase obtained from rat liver
T1 sequence (whole entry): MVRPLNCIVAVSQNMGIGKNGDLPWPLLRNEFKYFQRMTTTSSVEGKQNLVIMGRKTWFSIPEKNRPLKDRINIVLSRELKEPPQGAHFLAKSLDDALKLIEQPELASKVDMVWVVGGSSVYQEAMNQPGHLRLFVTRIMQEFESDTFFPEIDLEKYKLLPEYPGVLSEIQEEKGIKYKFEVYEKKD

[2] = target: T2, Dihydrofolate reductase (Escherichia coli) (UniProt P0ABQ4); experiment: (§1) Inhibitory activity against Dihydrofolate reductase obtained from Escherichia coli
T2 sequence (whole entry): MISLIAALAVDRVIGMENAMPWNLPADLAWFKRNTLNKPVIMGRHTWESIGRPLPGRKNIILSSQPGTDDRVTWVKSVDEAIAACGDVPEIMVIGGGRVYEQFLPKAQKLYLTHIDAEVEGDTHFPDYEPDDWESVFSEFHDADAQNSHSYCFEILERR

[3] = target: T3, Dihydrofolate reductase (Escherichia coli, UniProt P0ABQ4); experiment: as §1; conditions: read-out: I50
T3 sequence (P0ABQ4 whole entry): T2 sequence (whole entry)

I16 [1]: 100 µM | I14 [2]: 100 µM
SMILES: Nc1nc2c(N)cc(C(=O)c3ccccc3)cc2[nH]1

I14 [1]: 14 µM | I31 [2]: 140 µM
SMILES: Nc1nc2c(N)c3c(cc2[nH]1)C1(CC3)SCCS1

Second part, the compound before the results:

SMILES: Nc1nc2c(N)cc(Cc3ccccc3)cc2[nH]1
I5 [1]: 300 µM | I42 [2]: 300 µM

SMILES: Nc1nc2c(N)c3c(cc2[nH]1)CCC3
I7 [1]: 360 µM | I13 [2]: 360 µM

SMILES: Nc1cc2c(N)cc(Cc3ccccc3)cc2[nH]1
I28 [1]: 500 µM | pIC50 [3]: 4.00
